{
  "source": "patent US20260072046A1",
  "about": "(priority 2015, published 2026)",
  "key": {"[1]": {"conditions": "human; for concentration detected in the sublingual region (oral fluid) / concentration detected in the submandibular gland (oral fluid): female"}, "[2]": {"test": "LC-MS/MS quantification of drugs in oral fluid of live and post-mortem dogs", "conditions": "for detected and quantified in the sublingual region (oral fluid): Example 4, post-mortem dog, sublingual area"}, "[3]": {"test": "LC/MS/MS of muscle tissue homogenate (conventional method)", "conditions": "Example 5, remains of decedent; homogenate muscle tissue:plasma 1:4"}, "[4]": {"test": "LC-MS/MS quantification of drugs in muscle tissue fluid from remains of a post-mortem individual"}, "[5]": {"conditions": "post-mortem dog SF10049, FIG. 28"}, "[6]": {"conditions": "PM50019 001a, liquid leaked from container"}, "[7]": {"conditions": "PM50019 001b, fluid expelled by pressing muscle tissue"}},
  "note": "Like-named read-outs stand apart in the source and are kept apart here.",
  "data": [
    {"smiles": "CN(C)CCC=C1c2ccccc2C=Cc2ccccc21", "note": "[cyclobenzaprine]", "values": [
      {"measurement": "concentration in oral fluid", "setting": "[1]", "value": 4.74, "unit": "ng/mL"}
    ]},
    {"smiles": "O=C1CN=C(c2ccccc2Cl)c2cc([N+](=O)[O-])ccc2N1", "note": "[clonazepam]", "values": [
      {"measurement": "concentration in oral fluid", "setting": "[1]", "value": 0.34, "unit": "ng/mL"}
    ]},
    {"smiles": "COc1cccc(C2(O)CCCCC2CN(C)C)c1", "note": "(stereo not shown) [tramadol]", "values": [
      {"measurement": "detected and quantified in the sublingual region (oral fluid)", "setting": "[2]", "value": 49.70, "unit": "ng/mL"},
      {"measurement": "concentration in oral fluid", "setting": "[2]; [5]", "value": 49.70, "unit": "ng/mL"}
    ]},
    {"smiles": "CN1CC[C@]23c4c5ccc(O)c4O[C@H]2[C@@H](O)C=C[C@H]3[C@H]1C5", "note": "[morphine]", "values": [
      {"measurement": "concentration detected in the sublingual region (oral fluid)", "setting": "[1]", "value": 197.42, "unit": "ng/mL"},
      {"measurement": "concentration detected in the submandibular gland (oral fluid)", "setting": "[1]", "value": 12.34, "unit": "ng/mL"}
    ]},
    {"smiles": "CNC1(c2ccccc2Cl)CCCCC1=O", "note": "(stereo not shown) [ketamine]", "values": [
      {"measurement": "detected and quantified in the sublingual region (oral fluid)", "setting": "[2]", "value": 408.30, "unit": "ng/mL"},
      {"measurement": "concentration in oral fluid", "setting": "[2]; live dog SF10085, FIG. 21", "value": 598.30, "unit": "ng/mL"},
      {"measurement": "concentration in oral fluid", "setting": "[2]; live dog SF10086, FIG. 22", "value": 592.10, "unit": "ng/mL"},
      {"measurement": "concentration in oral fluid", "setting": "[2]; live dog SF10087, FIG. 23", "value": 1914.90, "unit": "ng/mL"},
      {"measurement": "concentration in oral fluid", "setting": "[2]; live dog SF10088, FIG. 24", "value": 426.20, "unit": "ng/mL"},
      {"measurement": "concentration in oral fluid", "setting": "[2]; live dog SF10092, FIG. 25", "value": 844.20, "unit": "ng/mL"},
      {"measurement": "concentration in oral fluid", "setting": "[2]; [5]", "value": 408.30, "unit": "ng/mL"},
      {"measurement": "concentration in oral fluid", "setting": "[2]; post-mortem dog SF10093, FIG. 26", "value": 229.50, "unit": "ng/mL"}
    ]},
    {"smiles": "CC(=O)Nc1ccc(O)cc1", "note": "[acetaminophen]", "values": [
      {"measurement": "detected and quantified in the sublingual region (oral fluid)", "setting": "[2]", "value": 12.20, "unit": "ng/mL"},
      {"measurement": "concentration in oral fluid", "setting": "[2]; [5]", "value": 12.20, "unit": "ng/mL"}
    ]},
    {"smiles": "COc1ccc2c3c1O[C@H]1C(=O)CC[C@@]4(O)[C@@H](C2)N(C)CC[C@]314", "note": "[oxycodone]", "values": [
      {"measurement": "concentration in oral fluid", "setting": "[1]", "value": 5.53, "unit": "ng/mL"}
    ]},
    {"smiles": "CC(N)Cc1ccccc1", "note": "(stereo not shown) [amphetamine]", "values": [
      {"measurement": "concentration from the muscle tissue homogenate", "setting": "[3]", "value": "< 100", "unit": "ng/g"},
      {"measurement": "concentration from the muscle tissue sample (muscle tissue fluid)", "setting": "[4]; [6]", "value": 10.4, "unit": "ng/mL"},
      {"measurement": "concentration from the muscle tissue sample (muscle tissue fluid)", "setting": "[4]; [7]", "value": 5.7, "unit": "ng/mL"}
    ]},
    {"smiles": "NCC1(CC(=O)O)CCCCC1", "note": "[gabapentin]", "values": [
      {"measurement": "detected and quantified in the sublingual region (oral fluid)", "setting": "[2]", "value": 205.00, "unit": "ng/mL"},
      {"measurement": "concentration in oral fluid", "setting": "[2]; [5]", "value": 205.00, "unit": "ng/mL"}
    ]},
    {"smiles": "CN[C@@H](C)Cc1ccccc1", "note": "[methamphetamine]", "values": [
      {"measurement": "concentration from the muscle tissue homogenate", "setting": "[3]", "value": "448+63 ng/g"},
      {"measurement": "concentration from the muscle tissue sample (muscle tissue fluid)", "setting": "[4]; [6]", "value": 113.1, "unit": "ng/mL"},
      {"measurement": "concentration from the muscle tissue sample (muscle tissue fluid)", "setting": "[4]; [7]", "value": 46.1, "unit": "ng/mL"},
      {"measurement": "concentration in oral fluid", "setting": "[2]; live dog SF10048, FIG. 27", "value": 16.20, "unit": "ng/mL"}
    ]},
    {"smiles": "CCCC(C)(COC(N)=O)COC(=O)NC(C)C", "note": "(stereo not shown) [carisoprodol]", "values": [
      {"measurement": "concentration detected in the sublingual region (oral fluid)", "setting": "[1]", "value": 49.20, "unit": "ng/mL"},
      {"measurement": "concentration detected in the submandibular gland (oral fluid)", "setting": "[1]", "value": 54.38, "unit": "ng/mL"}
    ]},
    {"smiles": "COc1ccc2c3c1O[C@H]1[C@@H](O)C=C[C@H]4[C@@H](C2)N(C)CC[C@@]341", "note": "[codeine]", "values": [
      {"measurement": "concentration detected in the sublingual region (oral fluid)", "setting": "[1]", "value": 5.64, "unit": "ng/mL"},
      {"measurement": "concentration detected in the submandibular gland (oral fluid)", "setting": "[1]", "value": 0.0, "unit": "ng/mL"},
      {"measurement": "concentration in oral fluid", "setting": "[1]", "value": 4.63, "unit": "ng/mL"}
    ]}
  ]
}
